Read-outs that look alike come from different tables or passages of the source.
Experiments:
[1] = molecular target: human TLR9 (Homo sapiens (Human), UniProt Q9NR96); assay: TLR9 inhibition reporter assay (HEK-Blue SEAP); conditions: read-out: TLR9 IC50, ODN2006 5 nM;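 note: SEAP driven by an IFN-β minimal promoter with NF-κB and AP-1 sites, read after 22 h, compounds dosed 0.05 nM–50 µM, inhibition scaled between agonist plus DMSO and reference-inhibitor wells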
[2] = molecular target: human TLR8 (Homo sapiens (Human), UniProt Q9NR97); assay: TLR8 inhibition reporter assay (HEK-Blue SEAP); conditions: read-out: TLR8 IC50, R848 15.9 μM;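 note: SEAP driven by IFN-β minimal promoter carrying NF-κB and AP-1 sites, compounds dosed 0.05 nM to 50 µM for 22 h, inhibition scaled between agonist-plus-DMSO and reference-inhibitor wells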
human TLR8, sequence (Q9NR97 27-1041): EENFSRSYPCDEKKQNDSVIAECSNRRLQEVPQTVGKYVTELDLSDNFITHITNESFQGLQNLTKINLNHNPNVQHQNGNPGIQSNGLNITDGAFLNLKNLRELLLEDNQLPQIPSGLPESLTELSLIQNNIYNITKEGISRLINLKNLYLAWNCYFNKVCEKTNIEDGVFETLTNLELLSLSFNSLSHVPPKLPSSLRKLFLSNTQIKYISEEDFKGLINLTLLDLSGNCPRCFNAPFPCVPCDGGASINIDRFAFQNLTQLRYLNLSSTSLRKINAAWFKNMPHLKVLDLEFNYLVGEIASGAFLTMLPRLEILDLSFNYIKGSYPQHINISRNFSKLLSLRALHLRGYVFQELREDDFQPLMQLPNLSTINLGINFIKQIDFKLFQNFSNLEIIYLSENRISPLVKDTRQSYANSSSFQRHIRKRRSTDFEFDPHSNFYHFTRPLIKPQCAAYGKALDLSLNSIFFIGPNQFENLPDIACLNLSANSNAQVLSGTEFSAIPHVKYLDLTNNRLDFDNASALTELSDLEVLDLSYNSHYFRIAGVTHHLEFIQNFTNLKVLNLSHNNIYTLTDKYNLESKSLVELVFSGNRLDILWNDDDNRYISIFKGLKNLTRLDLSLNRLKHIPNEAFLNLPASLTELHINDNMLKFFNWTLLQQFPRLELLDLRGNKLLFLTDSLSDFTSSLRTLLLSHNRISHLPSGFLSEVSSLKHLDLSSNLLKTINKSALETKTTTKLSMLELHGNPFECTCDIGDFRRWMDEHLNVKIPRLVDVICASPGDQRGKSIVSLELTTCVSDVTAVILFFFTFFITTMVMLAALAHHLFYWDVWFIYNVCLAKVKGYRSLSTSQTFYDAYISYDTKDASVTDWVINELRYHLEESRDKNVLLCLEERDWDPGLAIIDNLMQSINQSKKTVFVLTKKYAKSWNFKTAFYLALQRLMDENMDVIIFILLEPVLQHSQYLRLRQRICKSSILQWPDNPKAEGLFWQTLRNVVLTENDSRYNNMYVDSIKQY

[3] = molecular target: human TLR7 (Homo sapiens (Human), UniProt Q9NYK1); assay: TLR7 inhibition reporter assay (HEK-Blue SEAP); type: cell-based; conditions: gardiquimod 7.5 μM
human TLR7, sequence (Q9NYK1 27-1049): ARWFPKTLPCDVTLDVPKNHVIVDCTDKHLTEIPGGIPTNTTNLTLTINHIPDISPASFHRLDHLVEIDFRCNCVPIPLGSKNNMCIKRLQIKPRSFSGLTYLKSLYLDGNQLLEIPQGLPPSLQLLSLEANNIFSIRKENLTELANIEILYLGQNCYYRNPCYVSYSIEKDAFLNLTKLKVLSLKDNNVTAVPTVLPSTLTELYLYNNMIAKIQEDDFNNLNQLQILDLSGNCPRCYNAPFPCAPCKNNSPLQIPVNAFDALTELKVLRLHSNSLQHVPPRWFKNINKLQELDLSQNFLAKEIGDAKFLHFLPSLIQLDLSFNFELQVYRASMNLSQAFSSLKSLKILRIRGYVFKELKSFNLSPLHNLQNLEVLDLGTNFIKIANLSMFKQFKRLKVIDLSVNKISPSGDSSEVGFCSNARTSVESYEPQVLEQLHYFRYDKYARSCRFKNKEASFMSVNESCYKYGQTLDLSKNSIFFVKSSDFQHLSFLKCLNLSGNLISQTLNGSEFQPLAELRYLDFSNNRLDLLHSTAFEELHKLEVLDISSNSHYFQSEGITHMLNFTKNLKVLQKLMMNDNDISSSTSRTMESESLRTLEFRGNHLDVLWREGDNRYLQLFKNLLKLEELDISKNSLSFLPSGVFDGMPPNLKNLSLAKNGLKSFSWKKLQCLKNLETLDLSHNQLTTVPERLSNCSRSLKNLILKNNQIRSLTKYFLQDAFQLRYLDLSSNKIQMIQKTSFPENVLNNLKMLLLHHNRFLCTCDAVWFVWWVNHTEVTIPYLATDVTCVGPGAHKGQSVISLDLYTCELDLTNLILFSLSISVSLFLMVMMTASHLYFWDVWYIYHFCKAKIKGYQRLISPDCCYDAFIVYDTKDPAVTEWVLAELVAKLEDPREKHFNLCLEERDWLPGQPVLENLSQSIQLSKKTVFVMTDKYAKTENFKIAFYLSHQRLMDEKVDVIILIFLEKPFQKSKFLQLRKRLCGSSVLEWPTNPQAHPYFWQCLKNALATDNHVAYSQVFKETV

[4] = HEK-Blue cells overexpressing human TLR9, SEAP reporter
[5] = HEK-Blue cells overexpressing human TLR8, SEAP reporter
[6] = HEK-Blue cells overexpressing human TLR7, SEAP reporter

human TLR9, sequence (Q9NR96 26-1032): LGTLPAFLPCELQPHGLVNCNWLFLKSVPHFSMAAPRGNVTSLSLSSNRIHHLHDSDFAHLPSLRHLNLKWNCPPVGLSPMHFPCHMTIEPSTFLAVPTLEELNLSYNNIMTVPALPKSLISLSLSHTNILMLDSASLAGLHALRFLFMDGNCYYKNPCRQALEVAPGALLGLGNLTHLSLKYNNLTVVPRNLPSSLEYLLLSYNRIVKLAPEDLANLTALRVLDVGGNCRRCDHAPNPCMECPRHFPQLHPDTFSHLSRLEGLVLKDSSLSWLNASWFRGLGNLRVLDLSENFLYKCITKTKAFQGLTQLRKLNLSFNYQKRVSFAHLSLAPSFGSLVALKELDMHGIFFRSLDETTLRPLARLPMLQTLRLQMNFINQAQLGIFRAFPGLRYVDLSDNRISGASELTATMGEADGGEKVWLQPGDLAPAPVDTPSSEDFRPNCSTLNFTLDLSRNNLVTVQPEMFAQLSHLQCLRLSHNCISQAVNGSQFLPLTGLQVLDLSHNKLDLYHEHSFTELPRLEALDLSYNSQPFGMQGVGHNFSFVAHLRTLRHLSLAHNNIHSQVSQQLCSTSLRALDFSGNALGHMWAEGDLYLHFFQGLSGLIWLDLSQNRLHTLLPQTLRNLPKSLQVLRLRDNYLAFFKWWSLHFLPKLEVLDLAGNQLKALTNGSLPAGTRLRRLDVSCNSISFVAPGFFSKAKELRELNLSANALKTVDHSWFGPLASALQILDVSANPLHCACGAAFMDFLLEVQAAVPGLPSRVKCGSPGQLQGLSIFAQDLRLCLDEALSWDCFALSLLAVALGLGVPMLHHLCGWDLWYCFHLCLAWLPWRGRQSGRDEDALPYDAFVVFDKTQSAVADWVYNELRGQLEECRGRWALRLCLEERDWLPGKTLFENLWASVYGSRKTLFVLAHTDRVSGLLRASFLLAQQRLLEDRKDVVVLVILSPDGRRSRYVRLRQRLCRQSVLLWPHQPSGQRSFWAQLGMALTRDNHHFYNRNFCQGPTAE

Cc1c(-c2[nH]c3ccc(N4C[C@H]5C[C@@H](C4)N5CCC(N)=O)nc3c2C(C)C)cn2ncnc2c1C [Example 756]
IC50 [1, 4]: 9060 nM
IC50 [2, 5]: 6 nM
IC50 [3, 6]: 3.9 nM

Cc1c(-c2[nH]c3ccc(N4C[C@H](C)N[C@@H](C)C4)nc3c2C(C)C)cn2ncnc2c1C [Example 757]
IC50 [1, 4]: 5220 nM
IC50 [2, 5]: 1.9 nM
IC50 [3, 6]: 0.7 nM

Cc1c(-c2[nH]c3ccc(N4C[C@H](C)N(CCC(N)=O)[C@@H](C)C4)nc3c2C(C)C)cn2ncnc2c1C [Example 758]
IC50 [1, 4]: 18200 nM
IC50 [2, 5]: 1.7 nM
IC50 [3, 6]: 0.89 nM

Cc1c(-c2[nH]c3ccc(N4C[C@H](C)N(CC(N)=O)[C@@H](C)C4)nc3c2C(C)C)cn2ncnc2c1C [Example 759]
IC50 [1, 4]: 38200 nM
IC50 [2, 5]: 14 nM
IC50 [3, 6]: 3.8 nM

Cc1c(-c2[nH]c3ccc(N4C[C@H](C)N(C(=O)CN(C)C)[C@@H](C)C4)nc3c2C(C)C)cn2ncnc2c1C [Example 760]
IC50 [1, 4]: 7630 nM
IC50 [2, 5]: 27 nM
IC50 [3, 6]: 4.2 nM

Cc1c(-c2[nH]c3ccc(N4C[C@H](C)N(C(=O)CCN(C)C)[C@@H](C)C4)nc3c2C(C)C)cn2ncnc2c1C [Example 761]
IC50 [1, 4]: 8170 nM
IC50 [2, 5]: 14 nM
IC50 [3, 6]: 9 nM

Cc1c(-c2[nH]c3ccc(N4C[C@H](C)N(C(=O)CN(C)C)C[C@@H]4C)nc3c2C(C)C)cn2ncnc2c1C [Example 788]
IC50 [1, 4]: 8300 nM
IC50 [2, 5]: 3.2 nM
IC50 [3, 6]: 2.1 nM

Cc1c(-c2[nH]c3ccc(N4C[C@H](C)N(C(=O)CCN(C)C)C[C@@H]4C)nc3c2C(C)C)cn2ncnc2c1C [Example 789]
IC50 [1, 4]: 13300 nM
IC50 [2, 5]: 3.7 nM
IC50 [3, 6]: 3.2 nM

Cc1c(-c2[nH]c3ccc(N4CCN(C(=O)CCN(C)C)[C@@H](C)C4)nc3c2C(C)C)cn2ncnc2c1C [Example 790]
IC50 [1, 4]: 8810 nM
IC50 [2, 5]: 0.85 nM
IC50 [3, 6]: 0.42 nM

Cc1c(-c2[nH]c3ccc(N4CCN(CCC(N)=O)[C@@H](C)C4)nc3c2C(C)C)cn2ncnc2c1C [Example 791]
IC50 [1, 4]: 18100 nM
IC50 [2, 5]: 1.1 nM
IC50 [3, 6]: 5.3 nM

Cc1c(-c2[nH]c3ccc(N4CCN(C(C)C)[C@@H](C)C4)nc3c2C(C)C)cn2ncnc2c1C [Example 792]
IC50 [1, 4]: 8560 nM
IC50 [2, 5]: 1 nM
IC50 [3, 6]: 4 nM

Cc1c(-c2[nH]c3ccc(N4C[C@H](C)N(C(C)C)C[C@@H]4C)nc3c2C(C)C)cn2ncnc2c1C [Example 793]
IC50 [1, 4]: 7830 nM
IC50 [2, 5]: 1.4 nM
IC50 [3, 6]: 1.4 nM

Cc1c(-c2[nH]c3ccc(N4C[C@H](C)N(CCC(N)=O)C[C@@H]4C)nc3c2C(C)C)cn2ncnc2c1C [Example 794]
IC50 ([1]; HEK-Blue human TLR9 cells): 18000 nM
IC50 ([2]; HEK-Blue human TLR8 cells): 1.5 nM
IC50 ([3]; HEK-Blue human TLR7 cells): 1.4 nM

Cc1c(-c2[nH]c3ccc(N4C[C@H](C)N(CCCS(C)(=O)=O)C[C@@H]4C)nc3c2C(C)C)cn2ncnc2c1C [Example 795]
IC50 ([1]; HEK-Blue human TLR9 cells): > 50000 nM
IC50 ([2]; HEK-Blue human TLR8 cells): 8.1 nM
IC50 ([3]; HEK-Blue human TLR7 cells): 12 nM

Cc1c(-c2[nH]c3ccc(N4C[C@@H](C)N(C(=O)CN(C)C)C[C@H]4C)nc3c2C(C)C)cn2ncnc2c1C [Example 796]
IC50 ([1]; HEK-Blue human TLR9 cells): 11300 nM
IC50 ([2]; HEK-Blue human TLR8 cells): 15 nM
IC50 ([3]; HEK-Blue human TLR7 cells): 6 nM

Cc1c(-c2[nH]c3ccc(N4C[C@@H](C)N(C(=O)CCN(C)C)C[C@H]4C)nc3c2C(C)C)cn2ncnc2c1C [Example 797]
IC50 ([1]; HEK-Blue human TLR9 cells): 17600 nM
IC50 ([2]; HEK-Blue human TLR8 cells): 14 nM
IC50 ([3]; HEK-Blue human TLR7 cells): 10 nM

Cc1c(-c2[nH]c3ccc(N4C[C@@H](C)N(CCC(N)=O)C[C@H]4C)nc3c2C(C)C)cn2ncnc2c1C [Example 798]
IC50 ([1]; HEK-Blue human TLR9 cells): 22300 nM
IC50 ([2]; HEK-Blue human TLR8 cells): 5.7 nM
IC50 ([3]; HEK-Blue human TLR7 cells): 4.2 nM

Cc1c(-c2[nH]c3ccc(N4C[C@@H](C)N(CC(N)=O)C[C@H]4C)nc3c2C(C)C)cn2ncnc2c1C [Example 799]
IC50 ([1]; HEK-Blue human TLR9 cells): > 50000 nM
IC50 ([2]; HEK-Blue human TLR8 cells): 21 nM
IC50 ([3]; HEK-Blue human TLR7 cells): 5 nM

Cc1c(-c2[nH]c3ccc(N4C[C@@H](C)N(CC(N)=O)C[C@H]4C)nc3c2C(C)C)cn2ncnc2c1C [Example 800]
IC50 ([1]; HEK-Blue human TLR9 cells): > 50000 nM
IC50 ([2]; HEK-Blue human TLR8 cells): 26 nM
IC50 ([3]; HEK-Blue human TLR7 cells): 20 nM

Cc1c(-c2[nH]c3ccc(N4CCN(C(=O)CN(C)C)C[C@@H]4C)nc3c2C(C)C)cn2ncnc2c1C [Example 801]
IC50 ([1]; HEK-Blue human TLR9 cells): 11000 nM
IC50 ([2]; HEK-Blue human TLR8 cells): 0.56 nM
IC50 ([3]; HEK-Blue human TLR7 cells): 0.57 nM

Cc1c(-c2[nH]c3ccc(N4CCN(CC(C)(C)O)C[C@@H]4C)nc3c2C(C)C)cn2ncnc2c1C [Example 802]
IC50 ([1]; HEK-Blue human TLR9 cells): 17900 nM
IC50 ([2]; HEK-Blue human TLR8 cells): 0.65 nM
IC50 ([3]; HEK-Blue human TLR7 cells): 3 nM

Cc1c(-c2[nH]c3ccc(N4CCN(CC(=O)N(C)C)C[C@@H]4C)nc3c2C(C)C)cn2ncnc2c1C [Example 803]
IC50 ([1]; HEK-Blue human TLR9 cells): 39700 nM
IC50 ([2]; HEK-Blue human TLR8 cells): 4 nM
IC50 ([3]; HEK-Blue human TLR7 cells): 4.3 nM

Cc1c(-c2[nH]c3ccc(N4CCN(CCC(N)=O)C[C@@H]4C)nc3c2C(C)C)cn2ncnc2c1C [Example 804]
IC50 ([1]; HEK-Blue human TLR9 cells): 18100 nM
IC50 ([2]; HEK-Blue human TLR8 cells): 0.56 nM
IC50 ([3]; HEK-Blue human TLR7 cells): 1.2 nM

Cc1c(-c2[nH]c3ccc(N4CCN(CCCS(C)(=O)=O)C[C@@H]4C)nc3c2C(C)C)cn2ncnc2c1C [Example 805]
IC50 ([1]; HEK-Blue human TLR9 cells): 24200 nM
IC50 ([2]; HEK-Blue human TLR8 cells): 0.57 nM
IC50 ([3]; HEK-Blue human TLR7 cells): 2.1 nM

Cc1c(-c2[nH]c3ccc(N4CCN(CCCS(C)(=O)=O)C[C@H]4C)nc3c2C(C)C)cn2ncnc2c1C [Example 806]
IC50 ([1]; HEK-Blue human TLR9 cells): 29400 nM
IC50 ([2]; HEK-Blue human TLR8 cells): 1.1 nM
IC50 ([3]; HEK-Blue human TLR7 cells): 1.1 nM

Cc1c(-c2[nH]c3ccc(N4CCN(CCC(N)=O)C[C@H]4C)nc3c2C(C)C)cn2ncnc2c1C [Example 807]
IC50 ([1]; HEK-Blue human TLR9 cells): 16300 nM
IC50 ([2]; HEK-Blue human TLR8 cells): 1.3 nM
IC50 ([3]; HEK-Blue human TLR7 cells): 0.95 nM

Cc1c(-c2[nH]c3ccc(N4CCN(C(=O)CN(C)C)C[C@H]4C)nc3c2C(C)C)cn2ncnc2c1C [Example 808]
IC50 ([1]; HEK-Blue human TLR9 cells): 8950 nM
IC50 ([2]; HEK-Blue human TLR8 cells): 1.4 nM
IC50 ([3]; HEK-Blue human TLR7 cells): 0.19 nM

Cc1c(-c2[nH]c3ccc(N4CCN(CC(N)=O)C[C@@H]4C)nc3c2C(C)C)cn2ncnc2c1C [Example 809]
IC50 ([1]; HEK-Blue human TLR9 cells): 36000 nM
IC50 ([2]; HEK-Blue human TLR8 cells): 3.1 nM
IC50 ([3]; HEK-Blue human TLR7 cells): 2.2 nM

Cc1c(-c2[nH]c3ccc(N4CCN(CC#N)C[C@@H]4C)nc3c2C(C)C)cn2ncnc2c1C [Example 810]
IC50 ([1]; HEK-Blue human TLR9 cells): 7360 nM
IC50 ([2]; HEK-Blue human TLR8 cells): 0.63 nM
IC50 ([3]; HEK-Blue human TLR7 cells): 0.64 nM

Cc1c(-c2[nH]c3ccc(N4CCN(C(=O)CCN(C)C)C[C@@H]4C)nc3c2C(C)C)cn2ncnc2c1C [Example 811]
IC50 ([1]; HEK-Blue human TLR9 cells): 5600 nM
IC50 ([2]; HEK-Blue human TLR8 cells): 0.59 nM
IC50 ([3]; HEK-Blue human TLR7 cells): 0.36 nM

CNC(=O)CN1CCN(c2ccc3[nH]c(-c4cn5ncnc5c(C)c4C)c(C(C)C)c3n2)[C@@H](C)C1 [Example 812]
IC50 ([1]; HEK-Blue human TLR9 cells): > 50000 nM
IC50 ([2]; HEK-Blue human TLR8 cells): 3.6 nM
IC50 ([3]; HEK-Blue human TLR7 cells): 2.2 nM

Cc1c(-c2[nH]c3ccc(N4CCN(C5COC5)C[C@@H]4C)nc3c2C(C)C)cn2ncnc2c1C [Example 813]
IC50 ([1]; HEK-Blue human TLR9 cells): > 50000 nM
IC50 ([2]; HEK-Blue human TLR8 cells): 9.1 nM
IC50 ([3]; HEK-Blue human TLR7 cells): 3.7 nM

Cc1c(-c2[nH]c3ccc(N4CCN(C5CCOC5)C[C@@H]4C)nc3c2C(C)C)cn2ncnc2c1C (stereo partly drawn) [Example 814]
IC50 ([1]; HEK-Blue human TLR9 cells): > 50000 nM
IC50 ([2]; HEK-Blue human TLR8 cells): 2.3 nM
IC50 ([3]; HEK-Blue human TLR7 cells): 1.9 nM

Cc1c(-c2[nH]c3ccc(N4CCN(C5CCS(=O)(=O)CC5)C[C@@H]4C)nc3c2C(C)C)cn2ncnc2c1C [Example 815]
IC50 ([1]; HEK-Blue human TLR9 cells): > 50000 nM
IC50 ([2]; HEK-Blue human TLR8 cells): 1.4 nM
IC50 ([3]; HEK-Blue human TLR7 cells): 1.8 nM

Cc1c(-c2[nH]c3ccc(N4CCN(C(C)C)C[C@@H]4C)nc3c2C(C)C)cn2ncnc2c1C [Example 816]
IC50 ([1]; HEK-Blue human TLR9 cells): 8720 nM
IC50 ([2]; HEK-Blue human TLR8 cells): 1.7 nM
IC50 ([3]; HEK-Blue human TLR7 cells): 1.7 nM

Cc1c(-c2[nH]c3ccc(N4CCN(CCS(C)(=O)=O)C[C@@H]4C)nc3c2C(C)C)cn2ncnc2c1C [Example 817]
IC50 ([1]; HEK-Blue human TLR9 cells): > 50000 nM
IC50 ([2]; HEK-Blue human TLR8 cells): 2.9 nM
IC50 ([3]; HEK-Blue human TLR7 cells): 2.1 nM

CNC(=O)CCN1CCN(c2ccc3[nH]c(-c4cn5ncnc5c(C)c4C)c(C(C)C)c3n2)[C@@H](C)C1 [Example 818]
IC50 ([1]; HEK-Blue human TLR9 cells): 12800 nM
IC50 ([2]; HEK-Blue human TLR8 cells): 0.43 nM
IC50 ([3]; HEK-Blue human TLR7 cells): 0.78 nM

Cc1c(-c2[nH]c3ccc(N4CCN(C5CCOCC5)C[C@@H]4C)nc3c2C(C)C)cn2ncnc2c1C [Example 820]
IC50 ([1]; HEK-Blue human TLR9 cells): 9400 nM
IC50 ([2]; HEK-Blue human TLR8 cells): 2 nM
IC50 ([3]; HEK-Blue human TLR7 cells): 2.7 nM

Cc1c(-c2[nH]c3ccc(N4[C@@H](C)CNC[C@@H]4C)nc3c2C(C)C)cn2ncnc2c1C [Example 821]
IC50 ([1]; HEK-Blue human TLR9 cells): 6690 nM
IC50 ([2]; HEK-Blue human TLR8 cells): 1.3 nM
IC50 ([3]; HEK-Blue human TLR7 cells): 1.3 nM

Cc1c(-c2[nH]c3ccc(N4CCN[C@H](C)C4)nc3c2C(C)C)cn2ncnc2c1C [Example 822]
IC50 ([1]; HEK-Blue human TLR9 cells): 6910 nM
IC50 ([2]; HEK-Blue human TLR8 cells): 0.24 nM
IC50 ([3]; HEK-Blue human TLR7 cells): 1.1 nM
